According to ChEMBL document CHEMBL5149985, “Discovery of cytotoxic natural products from Red Sea sponges: Structure and synthesis” (Eur J Med Chem, 2021):

Legend:
PC-3 = test: Anticancer activity against human PC-3 cells assessed as inhibition of cell growth incubated for 96 hrs; format: functional, cell-based; settings: PC-3, 96 h
HepG2 [1] = test: Anticancer activity against human HepG2 cells assessed as inhibition of cell growth incubated for 96 hrs; format: functional, cell-based; settings: HepG2, 96 h
A549 = test: Anticancer activity against human A549 cells assessed as inhibition of cell growth incubated for 96 hrs; format: functional, cell-based; settings: A549, 96 h
P388 = test: Anticancer activity against mouse p-388 cells assessed as cell growth inhibition incubated for 3 days; format: functional, cell-based; settings: P388, 72 h
HeLa [2] = test: Anticancer activity against human HeLa assessed as inhibition of cell growth incubated for 48 hrs by SRB assay; format: functional, cell-based
HeLa [3] = test: Antiproliferative activity against human HeLa cells assessed as cell viability measured after 24 hrs by MTT assay; format: functional, cell-based
MDA-MB-231 [4] = test: Anticancer activity against human MDA-MB-231 cells assessed as cell viability measured after 24 hrs by MTT assay; format: functional, cell-based; settings: MDA-MB-231, 24 h
MDA-MB-231 [5] = test: Antimigratory activity against human MDA-MB-231 cells assessed as inhibition of cell migration at 10 uM incubated for 24 hrs by scratch wound healing assay relative to control; format: functional; parameters: scale not given: the % may be the effect or the level left
MDA-MB-231 [6] = test: Antimigratory activity against human MDA-MB-231 cells assessed as inhibition of cell migration at 2 uM incubated for 24 hrs by […] relative to control; format: functional; parameters: scale not given: the % may be the effect or the level left
T47D = test: Anticancer activity against human T47D cells assessed as cell growth inhibition incubated for 48 hrs by MTT assay; format: functional, cell-based
MDA-MB-231 [7] = test: Anticancer activity against human MDA-MB-231 cells assessed as cell growth inhibition incubated for 48 hrs by MTT assay; format: functional, cell-based; settings: MDA-MB-231, 48 h
SK-BR-3 = test: Anticancer activity against human SK-BR-3 cells assessed as cell growth inhibition incubated for 48 hrs by MTT assay; format: functional, cell-based; settings: SK-BR-3, 48 h
BT-474 = test: Anticancer activity against human BT-474 cells assessed as cell growth inhibition incubated for 48 hrs by MTT assay; format: functional, cell-based; settings: BT-474, 48 h
MCF7 [8] = test: Anticancer activity against human MCF7 cells assessed as cell growth inhibition incubated for 48 hrs by MTT assay; format: functional, cell-based; settings: MCF7, 48 h
HCT-116 [9] = test: Antiproliferative activity against human HCT-116 cells assessed as cell viability measured after 24 hrs by MTT assay; format: functional, cell-based; settings: HCT-116, 24 h
MDA-MB-231 [10] = test: Antimigratory activity against human MDA-MB-231 cells assessed as reduction in cell growth measured after 48 hrs by SRB assay; format: functional, cell-based; settings: MDA-MB-231, 48 h
MDA-MB-231 [11] = test: Anticancer activity against human MDA-MB-231 assessed as inhibition of cell growth incubated for 48 hrs by SRB assay; format: functional, cell-based; settings: MDA-MB-231, 48 h
MDA-MB-231 [12] = test: Anticancer activity against human MDA-MB-231 cells assessed as inhibition of cell growth; format: functional, cell-based
[13] = Antiproliferative activity against mouse Pheochromocytoma cells(MTT) assessed as reduction in relative cell viability incubated for 24 hrs by proliferation assay; format: functional, cell-based
[14] = Antiproliferative activity against mouse Pheochromocytoma cells(MPC) assessed as reduction in relative cell viability at 25 uM incubated for 24 hrs by proliferation assay relative to control; format: functional
[15] = Antiproliferative activity against mouse Pheochromocytoma cells(MTT) assessed as reduction in relative cell viability at 25 uM incubated for 24 hrs by proliferation assay; format: functional
[16] = Antiproliferative activity against mouse Pheochromocytoma cells(MPC) assessed as reduction in relative cell viability at 50 uM incubated for 24 hrs by proliferation assay relative to control; format: functional
[17] = Antiproliferative activity against mouse Pheochromocytoma cells(MTT) assessed as reduction in relative cell viability at 50 uM incubated for 24 hrs by proliferation assay; format: functional
L5178Y [18] = test: Anticancer activity against mouse L5178Y cells assessed as reduction in cell growth by [3H] Thymidine assay relative to control; format: functional, cell-based
L5178Y [19] = test: Anticancer activity against mouse L5178Y cells assessed as reduction in cell growth at 3 uG by [3H] Thymidine assay relative to control; format: functional; settings: dose 3 µg
L5178Y [20] = test: Anticancer activity against mouse L5178Y cells assessed as reduction in cell growth at 10 uG by [3H] Thymidine assay relative to control; format: functional; settings: dose 10 µg
HCT-116 [21] = test: Anticancer activity against human HCT-116 cells assessed as inhibition of cell growth measured after 72 hrs by MTT assay; format: functional, cell-based; settings: HCT-116, 72 h
[22] = Inhibition of actin (unknown origin) polymerization at 100 nM incubated for 20 mins in presence of ATP by ELISA analysis relative to control; settings: Homo sapiens
[23] = Inhibition of actin (unknown origin) polymerization incubated for 20 mins in presence of ATP by ELISA analysis; parameters: species or system Homo sapiens
MCF7 [24] = test: Anticancer activity against human MCF7 cells assessed as inhibition of cell growth incubated for 72 hrs by MTT assay; format: functional, cell-based; settings: MCF7, 72 h
MCF7 [25] = test: Potency index, ratio of latrunculin IC50 to test compound IC50 for cytotoxicity against human MCF7 cells; format: functional
Homo sapiens = organism: Homo sapiens; test: Inhibition of actin (unknown origin) polymerization at 1 uM incubated for 20 mins in presence of ATP by ELISA analysis relative to control
MDA-MB-231 [26] = test: Anticancer activity against human MDA-MB-231 cells assessed as inhibition of cell growth incubated for 72 hrs by MTT assay; format: functional, cell-based; settings: MDA-MB-231, 72 h
HCT-116 [27] = test: Anticancer activity against human HCT-116 cells assessed as reduction in cell viability measured after 72 hrs by MTT assay; settings: HCT-116, 72 h
MDA-MB-231 [28] = test: Anticancer activity against human MDA-MB-231 cells assessed as reduction in cell viability measured after 72 hrs by MTT assay; format: functional, cell-based; settings: MDA-MB-231, 72 h
HeLa [29] = test: Anticancer activity against human HeLa cells assessed as reduction in cell viability measured after 72 hrs by MTT assay
Caco-2 = test: Anticancer activity against human Caco-2 cells assessed as inhibition of cell growth; format: functional, cell-based
HepG2 [30] = test: Anticancer activity against human HepG2 cells assessed as inhibition of cell growth; format: functional, cell-based
KB 3-1 = test: Anticancer activity against human KB 3-1 cells assessed as inhibition in cell growth; format: functional, cell-based
HT-29 = test: Anticancer activity against human HT-29 cells assessed as cell growth inhibition; format: functional, cell-based
MCF7 [31] = test: Anticancer activity against human MCF7 cells assessed as inhibition of cell growth incubated for 48 hrs by ELISA based SRB assay; format: functional; settings: MCF7, 48 h
HepG2 [32] = test: Anticancer activity against human HepG2 cells assessed as inhibition of cell growth incubated for 48 hrs by ELISA based SRB assay; format: functional; settings: HepG2, 48 h

SMILES: CC(=O)O[C@@H]1OC=C2C1[C@]1(C)C(C[C@@H]2OC(C)=O)[C@]2(C)CCC3C(C)(C)CCC[C@]3(C)C2C[C@H]1O (stereo not given in full)
- IC50 (PC-3): 0.077 µM
- IC50 (HepG2 [1]): 0.041 µM
- IC50 (A549): 0.027 µM

SMILES: CC[C@H]1CCCC[C@@]2(C[C@@H]3CC[C@@H]4[C@H](C(=O)OCCCCCCCCCCCCCCCC(=O)N(CCCN)CCCCN)[C@]5(CCC[C@@H](C)O5)NC(=[N+]34)N2)O1
- IC50 (P388): 0.1 µg/mL

SMILES: CCOC(=O)Cc1c(O)cc(Br)c(O)c1Br
- IC50 (HeLa [2]): 13.3 µM
- IC50 (HeLa [3]): 13.3 µM

SMILES: CCOC(=O)NCCCCNC(=O)C1=NO[C@]2(C=C(Br)C(OC)=C(Br)[C@@H]2O)C1 [SUBEREAMOLLINE A]
- IC50 (MDA-MB-231 [4]): 0.4 µM
- Activity (MDA-MB-231 [5]): 52%
- Activity (MDA-MB-231 [6]): 38%

SMILES: O[C@]12CCCCCC[C@@H]3CCN4CCC[C@](O)(CCCCCC[C@@H]5CCN(CCC1)[C@H]2O5)[C@@H]4O3
- IC50 (T47D): 46.1 µM
- IC50 (MDA-MB-231 [7]): 15.2 µM
- IC50 (SK-BR-3): 18.3 µM
- IC50 (BT-474): 15.2 µM
- IC50 (MCF7 [8]): 8.5 µM

SMILES: COC1=C(Br)C[C@]2(OC=C1Br)ON=C(C(=O)NCCCOc1c(Br)cc(CCNC=C3C(=O)C=CC3=O)cc1Br)[C@@H]2O
- IC50 (HCT-116 [9]): 5.1 µM
- IC50 (MDA-MB-231 [4]): 0.29 µM
- IC50 (HeLa [3]): 2.1 µM
- IC50 (MDA-MB-231 [10]): 0.31 µM

SMILES: COC1=C(Br)[C@@H]2OC(=O)C[C@]2(O)C=C1Br
- IC50 (MDA-MB-231 [11]): 18 µM
- IC50 (MDA-MB-231 [12]): 18 µM

SMILES: COC1=C(Br)[C@H](O)[C@@]2(C=C1Br)CC(C(=O)NCCCCNC(=O)C1=NO[C@]3(C=C(Br)C(OC)=C(Br)[C@@H]3O)C1)=NO2 [AEROTHIONIN]
- EC50 [13]: 48.1 µM
- Activity [14]: 83.7%
- Activity [15]: 82.8%
- Activity [16]: 55.1%
- Activity [17]: 48.3%
- IC50 (HeLa [3]): 29 µM

SMILES: CC1(C)CCC[C@]2(C)[C@H]3C[C@@H](O)[C@]4(C)C5=C(COC5=O)[C@@H](O)C[C@H]4[C@]3(C)CC[C@@H]12
- IC50 (L5178Y [18]): 0.0075 µM
- inhibition (INH) (L5178Y [19]): 40.5%
- inhibition (INH) (L5178Y [20]): 55.3%

SMILES: CC(/C=C/c1ccccc1)=C\[C@H](O)[C@@H]1CCC(=O)N[C@@H](CO)C(=O)NC2C[n+]3cc(n([C@@H]4O[C@H](CO)[C@H](O)[C@H](O)[C@H]4O)c3)CC(NC(=O)CCC[C@@H](C(=O)[O-])NC(=O)[C@@H](O)CNC(=O)[C@H](Cc3ccc(Br)cc3)NC(=O)[C@H]([C@@H](O)C(N)=O)NC(=O)[C@H](CC(N)=O)NC2=O)C(=O)N[C@@H]([C@@H](C)O)C(=O)N[C@@H](CO)C(=O)N[C@@H](Cc2ccccc2)C(=O)N1 (stereo not given in full)
- IC50 (HCT-116 [21]): 6 µM

SMILES: C/C1=C/C(=O)O[C@@H]2C[C@@H](CC[C@H](C)/C=C\C=C\CC1)O[C@@](O)([C@@H]1CSC(=O)N1CO)C2
- inhibition [22]: 35%
- IC50 [23]: 0.21 µM
- IC50 (MCF7 [24]): 0.12 µM
- Ratio IC50 (MCF7 [25]): 4
- inhibition (Homo sapiens): 90%
- IC50 (MDA-MB-231 [26]): 2.99 µM

SMILES: O=c1[nH]cc(F)c(=O)[nH]1 [FLUOROURACIL]
- IC50 (HCT-116 [27]): 4.6 µM
- IC50 (MDA-MB-231 [28]): 13 µM
- IC50 (HeLa [29]): 12.3 µM

SMILES: CC1=CC[C@H]2[C@@H]([C@@H]1CC[C@H]1[C@]3(C)CC[C@H](O)C(C)(C)O[C@H]3CC[C@]1(C)O)C(C)(C)CC[C@]2(C)O [SIPHOLENOL L]
- IC50 (Caco-2): 26.6 µM
- IC50 (HepG2 [30]): 24 µM
- IC50 (KB 3-1): 0.0051 µM
- IC50 (HT-29): 4.48 µM

SMILES: CCCCCCCCCCCCCCCCCC[C@@H](O)C(=O)N[C@@H](CO)[C@H](O)[C@H](O)CCCCCCCCCCCCCCCC
- IC50 (MCF7 [31]): 28.3 µM
- IC50 (HepG2 [32]): 25.4 µM
